Legend:
[1] = system: Human osteoclast precursors; experiment: OsteoLyse assay: osteoclast differentiation and collagen degradation in vitro; assay type: cell-based; settings: relative to standard control wells (100%); day seven of culture; FIG. 1
Description: A 96-well OsteoLyse™ assay system (commercially available from Lonza Biosciences, Walkersville, Md.) was used for this evaluation. Specifically, a 96-well OsteoLyse™ plate was coated with fluorophore-derivatized human bone matrix (europium conjugated collagen). Human osteoclast precursors, at a density of 10,000/200 μl of differentiation medium (containing M-CSF and RANK Ligand) were seeded onto the surface of the plate. Triplicate cell culture wells were treated with one of: Curcumin in DMSO; Vitamin K2 in ethanol; combination of Curcumin and Vitamin K2; and alendronate (control). Cell culture wells with only differentiation medium were treated as standard control wells. After six days of culture, old medium was removed and 200 μl of fresh differentiation medium was added to all wells. Twenty-four hours later, on day seven of culture, 10 μl of medium supernatant was used for fluorescence measurement. For the measurement, 10 μl of medium supernatant was added to 100 μl of fluorophore-releasing agent (Lonza Bioscience, Walkersville, Md.) in a black-walled 96-well plate. The samples were briefly mixed and fluorescence was determined using a time-resolved fluorescence fluorimeter (Spectramax M5, available from Molecular Devices, Sunnyvale, Calif., with excitation at 340 nm and emission at 615 nm) over a 400-microsecond time period after an initial delay of 400 microseconds. Osteoclast differentiation in a standard control cell culture well was assumed to be 100% and relative osteoclast differentiation, with respect to control wells, in other cell culture wells was calculated and plotted on the bar graph shown in FIG. 1.

[2] = system: Primary human osteoclast precursors; experiment: OsteoAssay plate / CalciFluor assay: bone resorption by osteoclasts; assay type: cell-based; settings: relative to standard control cells; calcium release, day eight of culture; FIG. 2
Description: A 96-well OsteoAssay™ plate (commercially available from Lonza Biosciences, Walkersville, Md.) was used for this evaluation. Specially, a 96-well OsteoAssay™ plate was coated with a thin-layer of adherent human bone particles. Primary human osteoclast precursors, at a density of 10,000/200 μl of differentiation medium (containing M-CSF and RANK Ligand), were seeded onto the surface of the plate. Triplicate cell culture wells were treated with one of: Curcumin in DMSO; Vitamin K2 in ethanol; combination of Curcumin and Vitamin K2; and alendronate (control). Cell culture wells with only differentiation medium were treated as standard control wells. After six days of culture, old medium was removed and 200 μl of fresh basal resorption medium containing M-CSF and RANK Ligand was added to all wells. Forty-eight hours later, on day eight of culture, 10 μl of medium supernatant was used for calcifluor assay. […] The samples were briefly mixed and fluorescence was determined using a fluorimeter (Spectramax M5, available from Molecular Devices, Sunnyvale, Calif., with excitation at 551 nm and emission at 577 nm). The concentration of calcium in each well was calculated based on the standard curve. […] The relative percentage inhibition of bone resorption, with respect to standard control cells, was calculated and plotted on the bar graph as shown in FIG. 2.

menaquinone [Vitamin K2]
inhibition of osteoclast differentiation [1]: did not significantly inhibit
inhibition of bone resorption [2]: 31.9%

NCCCC(O)(P(=O)(O)O)P(=O)(O)O [Alendronate, reference compound]
inhibition of osteoclast differentiation [1]: 53.6%

COc1cc(/C=C/C(=O)CC(=O)/C=C/c2ccc(O)c(OC)c2)ccc1O [Curcumin, (1E,6E)-1,7-bis(4-hydroxy-3-methoxyphenyl)-1,6-heptadiene-3,5-dione]
inhibition of osteoclast differentiation [1]: did not significantly inhibit
inhibition of bone resorption [2]: 39.7%
